Tested on: 857933-349-R-J2-PDC complex spheroid viability
Test: Anticancer human tumor 857933-349-R-J2-PDC patient-derived colon adenocarcinoma cell line growth inhibition [POLQ]
Details: for IC50: curve of first compound; for viability, T/C: stronger effect = lower value
In short: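 Growth inhibition in 3D: complex spheroids (tumor PDC, HUVEC, MSC) treated with POLQ inhibitor combinations; where Cmax unknown, highest tested concentration 10 microM, except SN-38 at 1 microM.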
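Note: spheroids exposed to compounds for seven days before readout.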

**Q.** For CCc1c2c(nc3ccc(O)cc13)-c1cc3c(c(=O)n1C2)COC(=O)[C@]3(O)CC + Nc1ccc(C#CCN(C(=O)Cc2ncc(C(F)(F)F)cc2C(F)(F)F)c2ccc(F)cc2)nn1, which IC50 (second compound 0.0316 µM) is on record?
**A.** 14.9 nM

**Q.** And the IC50 (second compound 0.1 µM)?
**A.** 13.6 nM

**Q.** And the IC50 (second compound 0.316 µM)?
**A.** 10.9 nM

**Q.** And the IC50 (second compound 1 µM)?
**A.** 12.7 nM

**Q.** And the IC50 (second compound 3.16 µM)?
**A.** 13.2 nM

**Q.** And the IC50 (second compound 10 µM)?
**A.** 12.7 nM

**Q.** What about the viability, T/C (second compound 0.0316 µM, first compound 0.00316 µM) of the same molecule?
**A.** 65.4%

**Q.** What about the viability, T/C (second compound 0.0316 µM, first compound 0.01 µM) of the same molecule?
**A.** 63.6%

**Q.** And the viability, T/C (second compound 0.0316 µM, first compound 0.0316 µM)?
**A.** 27.2%

**Q.** What about the viability, T/C (second compound 0.0316 µM, first compound 0.1 µM) of the same molecule?
**A.** 18.6%

**Q.** What about the viability, T/C (second compound 0.0316 µM, first compound 0.316 µM) of the same molecule?
**A.** 10.8%

**Q.** What about the viability, T/C (second compound 0.0316 µM, first compound 1 µM) of the same molecule?
**A.** 2.67%

**Q.** What about the viability, T/C (second compound 0.1 µM, first compound 0.00316 µM) of the same molecule?
**A.** 64.9%

**Q.** And the viability, T/C (second compound 0.1 µM, first compound 0.01 µM)?
**A.** 60.5%

**Q.** And the viability, T/C (second compound 0.1 µM, first compound 0.0316 µM)?
**A.** 23.2%

**Q.** And the viability, T/C (second compound 0.1 µM, first compound 0.1 µM)?
**A.** 14.3%

**Q.** And the viability, T/C (second compound 0.1 µM, first compound 0.316 µM)?
**A.** 9.81%

**Q.** And the viability, T/C (second compound 0.1 µM, first compound 1 µM)?
**A.** 2.89%

**Q.** And the viability, T/C (second compound 0.316 µM, first compound 0.00316 µM)?
**A.** 68%

**Q.** What about the viability, T/C (second compound 0.316 µM, first compound 0.01 µM) of the same molecule?
**A.** 53.6%

**Q.** And the viability, T/C (second compound 0.316 µM, first compound 0.0316 µM)?
**A.** 21.7%

**Q.** And the viability, T/C (second compound 0.316 µM, first compound 0.1 µM)?
**A.** 14.7%

**Q.** What about the viability, T/C (second compound 0.316 µM, first compound 0.316 µM) of the same molecule?
**A.** 9.84%

**Q.** And the viability, T/C (second compound 0.316 µM, first compound 1 µM)?
**A.** 1.82%

**Q.** What about the viability, T/C (second compound 1 µM, first compound 0.00316 µM) of the same molecule?
**A.** 68.1%

**Q.** What about the viability, T/C (second compound 1 µM, first compound 0.01 µM) of the same molecule?
**A.** 58.1%

**Q.** What about the viability, T/C (second compound 1 µM, first compound 0.0316 µM) of the same molecule?
**A.** 24.9%

**Q.** What about the viability, T/C (second compound 1 µM, first compound 0.1 µM) of the same molecule?
**A.** 15.6%

**Q.** And the viability, T/C (second compound 1 µM, first compound 0.316 µM)?
**A.** 8.49%

**Q.** And the viability, T/C (second compound 1 µM, first compound 1 µM)?
**A.** 2.23%

**Q.** And the viability, T/C (second compound 3.16 µM, first compound 0.00316 µM)?
**A.** 66.2%

**Q.** And the viability, T/C (second compound 3.16 µM, first compound 0.01 µM)?
**A.** 58.9%

**Q.** What about the viability, T/C (second compound 3.16 µM, first compound 0.0316 µM) of the same molecule?
**A.** 27.4%

**Q.** And the viability, T/C (second compound 3.16 µM, first compound 0.1 µM)?
**A.** 17.6%

**Q.** What about the viability, T/C (second compound 3.16 µM, first compound 0.316 µM) of the same molecule?
**A.** 12.5%

**Q.** What about the viability, T/C (second compound 3.16 µM, first compound 1 µM) of the same molecule?
**A.** 3.21%

**Q.** And the viability, T/C (second compound 10 µM, first compound 0.00316 µM)?
**A.** 70.2%

**Q.** What about the viability, T/C (second compound 10 µM, first compound 0.01 µM) of the same molecule?
**A.** 57.9%

**Q.** What about the viability, T/C (second compound 10 µM, first compound 0.0316 µM) of the same molecule?
**A.** 25.9%

**Q.** What about the viability, T/C (second compound 10 µM, first compound 0.1 µM) of the same molecule?
**A.** 20.9%

**Q.** And the viability, T/C (second compound 10 µM, first compound 0.316 µM)?
**A.** 12.7%

**Q.** What about the viability, T/C (second compound 10 µM, first compound 1 µM) of the same molecule?
**A.** 5.79%

From PubChem BioAssay AID1963836 (Molecular Pharmacology Branch, DTP, NCI, 2024)
